{"source": "patent US11970473B2", "about": "“Nootkatone derivatives and methods of using the same” (Arkansas State University—Jonesboro, priority 2021, dated 2024)", "key": {"NCI/ADR-RES": {"tested_on": "NCI/ADR-RES", "assay": "NCI-60 cancer screen", "format": "cell-based, human", "conditions": "Ovarian Cancer, 10 μM"}, "UACC-62": {"tested_on": "UACC-62", "assay": "NCI-60 cancer screen", "format": "cell-based, human", "conditions": "UACC-62, Melanoma; 10 μM"}, "ACHN": {"tested_on": "ACHN", "assay": "NCI-60 cancer screen", "format": "cell-based, human", "conditions": "Renal Cancer, 10 μM"}, "HOP-92": {"tested_on": "HOP-92", "assay": "NCI-60 cancer screen", "format": "cell-based, human", "conditions": "HOP-92, Non-Small Cell Lung Cancer; 10 μM"}, "TK-10": {"tested_on": "TK-10", "assay": "NCI-60 cancer screen", "format": "cell-based, human", "conditions": "TK-10, Renal Cancer; 10 μM"}, "COLO 205": {"tested_on": "COLO 205", "assay": "NCI-60 cancer screen", "format": "cell-based, human", "conditions": "COLO 205, Colon Cancer; 10 μM"}, "SN12C": {"tested_on": "SN12C", "assay": "NCI-60 cancer screen", "format": "cell-based, human", "conditions": "Renal Cancer, 10 μM"}, "NCI-H226": {"tested_on": "NCI-H226", "assay": "NCI-60 cancer screen", "format": "cell-based, human", "conditions": "NCI-H226, Non-Small Cell Lung Cancer; 10 μM"}, "NCI-H23": {"tested_on": "NCI-H23", "assay": "NCI-60 cancer screen", "format": "cell-based, human", "conditions": "NCI-H23, Non-Small Cell Lung Cancer; 10 μM"}, "HS 578T": {"tested_on": "HS 578T", "assay": "NCI-60 cancer screen", "format": "cell-based, human", "conditions": "Breast Cancer, 10 μM"}, "SF-539": {"tested_on": "SF-539", "assay": "NCI-60 cancer screen", "format": "cell-based, human", "conditions": "SF-539, CNS Cancer; 10 μM"}, "CCRF-CEM": {"tested_on": "CCRF-CEM", "assay": "NCI-60 cancer screen", "format": "cell-based, human", "conditions": "Leukemia, 10 μM"}, "DU-145": {"tested_on": "DU-145", "assay": "NCI-60 cancer screen", "format": "cell-based, human", "conditions": "DU-145, Prostate Cancer; 10 μM"}, "NCI-H460": {"tested_on": "NCI-H460", "assay": "NCI-60 cancer screen", "format": "cell-based, human", "conditions": "NCI-H460, Non-Small Cell Lung Cancer; 10 μM"}, "RXF 393": {"tested_on": "RXF 393", "assay": "NCI-60 cancer screen", "format": "cell-based, human", "conditions": "RXF 393, Renal Cancer; 10 μM"}, "LOX IMVI": {"tested_on": "LOX IMVI", "assay": "NCI-60 cancer screen", "format": "cell-based, human", "conditions": "Melanoma, 10 μM"}, "OVCAR-3": {"tested_on": "OVCAR-3", "assay": "NCI-60 cancer screen", "format": "cell-based, human", "conditions": "OVCAR-3, Ovarian Cancer; 10 μM"}, "NCI-H322M": {"tested_on": "NCI-H322M", "assay": "NCI-60 cancer screen", "format": "cell-based, human", "conditions": "Non-Small Cell Lung Cancer, 10 μM"}, "HL-60(TB)": {"tested_on": "HL-60(TB)", "assay": "NCI-60 cancer screen", "format": "cell-based, human", "conditions": "Leukemia, 10 μM"}, "MALME-3M": {"tested_on": "MALME-3M", "assay": "NCI-60 cancer screen", "format": "cell-based, human", "conditions": "Melanoma, 10 μM"}, "SNB-19": {"tested_on": "SNB-19", "assay": "NCI-60 cancer screen", "format": "cell-based, human", "conditions": "SNB-19, CNS Cancer; 10 μM"}, "HCC-2998": {"tested_on": "HCC-2998", "assay": "NCI-60 cancer screen", "format": "cell-based, human", "conditions": "HCC-2998, Colon Cancer; 10 μM"}, "SF-295": {"tested_on": "SF-295", "assay": "NCI-60 cancer screen", "format": "cell-based, human", "conditions": "SF-295, CNS Cancer; 10 μM"}, "T-47D": {"tested_on": "T-47D", "assay": "NCI-60 cancer screen", "format": "cell-based, human", "conditions": "Breast Cancer, 10 μM"}, "HT29": {"tested_on": "HT29", "assay": "NCI-60 cancer screen", "format": "cell-based, human", "conditions": "HT29, Colon Cancer; 10 μM"}, "MDA-MB-468": {"tested_on": "MDA-MB-468", "assay": "NCI-60 cancer screen", "format": "cell-based, human", "conditions": "MDA-MB-468, Breast Cancer; 10 μM"}, "NCI-60 cancer cell lines": {"tested_on": "NCI-60 cancer cell lines", "assay": "NCI-60 cancer screen (whole panel)", "format": "cell-based, human", "conditions": "10 μM"}, "MCF7": {"tested_on": "MCF7", "assay": "NCI-60 cancer screen", "format": "cell-based, human", "conditions": "MCF7, Breast Cancer; 10 μM"}, "[1]": {"tested_on": "S. aureus ATCC 25923 (Sa23)", "assay": "Minimal inhibitory concentration (MIC) assay", "format": "cell-based", "conditions": "Staphylococcus aureus, ATCC25923; S. aureus ATCC 25923, antibiotic susceptible strain; read-out: Antimicrobial activity (MIC) Sa23", "how_it_was_run": "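In triplicate, the lowest inhibitory concentration was found by microdilution per CLSI recommendations, over a halving series whose highest compound concentration was 50 μg/ml.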"}, "K-562": {"tested_on": "K-562", "assay": "NCI-60 cancer screen", "format": "cell-based, human", "conditions": "K-562, Leukemia; 10 μM"}, "786-0": {"tested_on": "786-0", "assay": "NCI-60 cancer screen", "format": "cell-based, human", "conditions": "786-0, Renal Cancer; 10 μM"}, "EKVX": {"tested_on": "EKVX", "assay": "NCI-60 cancer screen", "format": "cell-based, human", "conditions": "Non-Small Cell Lung Cancer, 10 μM"}, "SW-620": {"tested_on": "SW-620", "assay": "NCI-60 cancer screen", "format": "cell-based, human", "conditions": "SW-620, Colon Cancer; 10 μM"}, "OVCAR-4": {"tested_on": "OVCAR-4", "assay": "NCI-60 cancer screen", "format": "cell-based, human", "conditions": "OVCAR-4, Ovarian Cancer; 10 μM"}, "MDA-MB-231/ATCC": {"tested_on": "MDA-MB-231/ATCC", "assay": "NCI-60 cancer screen", "format": "cell-based, human", "conditions": "Breast Cancer, 10 μM"}}}
{"smiles": "C=C(C)[C@@H]1CC=C2c3sc(-c4ccc(O)cc4)nc3C[C@@H](C)[C@]2(C)C1", "note": "[Compound 15, 4-[(5R,5aS,7R)-7-isopropenyl-5,5a-dimethyl-5,6,7,8-tetrahydro-4H-benzo[g][1,3]benzothiazol-2-yl]phenol]", "values": [{"measurement": "Growth Percent", "setting": "NCI/ADR-RES", "result": 105.66, "unit": "%"}, {"measurement": "Growth Percent", "setting": "UACC-62", "result": 93.02, "unit": "%"}, {"measurement": "Growth Percent", "setting": "ACHN", "result": 100.09, "unit": "%"}, {"measurement": "Growth Percent", "setting": "HOP-92", "result": 96.54, "unit": "%"}, {"measurement": "Growth Percent", "setting": "TK-10", "result": 118.28, "unit": "%"}, {"measurement": "Growth Percent", "setting": "COLO 205", "result": 118.41, "unit": "%"}, {"measurement": "Growth Percent", "setting": "SN12C", "result": 94.92, "unit": "%"}, {"measurement": "Growth Percent", "setting": "NCI-H226", "result": 94.10, "unit": "%"}, {"measurement": "Growth Percent", "setting": "NCI-H23", "result": 94.71, "unit": "%"}, {"measurement": "Growth Percent", "setting": "HS 578T", "result": 100.94, "unit": "%"}, {"measurement": "Growth Percent", "setting": "SF-539", "result": 101.06, "unit": "%"}, {"measurement": "Growth Percent", "setting": "CCRF-CEM", "result": 99.49, "unit": "%"}, {"measurement": "Growth Percent", "setting": "DU-145", "result": 104.97, "unit": "%"}, {"measurement": "Growth Percent", "setting": "NCI-H460", "result": 104.69, "unit": "%"}, {"measurement": "Growth Percent", "setting": "RXF 393", "result": 113.93, "unit": "%"}, {"measurement": "Growth Percent", "setting": "LOX IMVI", "result": 101.88, "unit": "%"}, {"measurement": "Growth Percent", "setting": "OVCAR-3", "result": 102.89, "unit": "%"}, {"measurement": "Growth Percent", "setting": "NCI-H322M", "result": 102.27, "unit": "%"}, {"measurement": "Growth Percent", "setting": "HL-60(TB)", "result": 100.82, "unit": "%"}, {"measurement": "Growth Percent", "setting": "MALME-3M", "result": 99.38, "unit": "%"}, {"measurement": "Growth Percent", "setting": "SNB-19", "result": 93.47, "unit": "%"}, {"measurement": "Growth Percent", "setting": "HCC-2998", "result": 100.46, "unit": "%"}, {"measurement": "Growth Percent", "setting": "SF-295", "result": 92.61, "unit": "%"}, {"measurement": "Growth Percent", "setting": "T-47D", "result": 84.40, "unit": "%"}, {"measurement": "Growth Percent", "setting": "HT29", "result": 105.86, "unit": "%"}, {"measurement": "Growth Percent", "setting": "MDA-MB-468", "result": 102.12, "unit": "%"}, {"measurement": "Growth Percent, Delta", "setting": "NCI-60 cancer cell lines; delta over panel", "result": 16.54, "unit": "%"}, {"measurement": "Growth Percent, Mean", "setting": "NCI-60 cancer cell lines; mean over panel", "result": 100.94, "unit": "%"}, {"measurement": "Growth Percent, Range", "setting": "NCI-60 cancer cell lines; range over panel", "result": 34.01, "unit": "%"}, {"measurement": "Growth Percent", "setting": "MCF7", "result": 89.98, "unit": "%"}, {"measurement": "MIC", "setting": "[1]", "result": "> 100", "unit": "µg/mL"}, {"measurement": "Growth Percent", "setting": "K-562", "result": 92.07, "unit": "%"}, {"measurement": "Growth Percent", "setting": "786-0", "result": 101.31, "unit": "%"}, {"measurement": "Growth Percent", "setting": "EKVX", "result": 101.37, "unit": "%"}, {"measurement": "Growth Percent", "setting": "SW-620", "result": 103.38, "unit": "%"}, {"measurement": "Growth Percent", "setting": "OVCAR-4", "result": 95.29, "unit": "%"}, {"measurement": "Growth Percent", "setting": "MDA-MB-231/ATCC", "result": 101.25, "unit": "%"}]}
